Measured values taken from the supplement of paper PMC8253809.

What was measured:
DIPGX37 [1] = H3.3 K27M diffuse intrinsic pontine glioma line; assay: EC50 (inflection of fitted growth-inhibition curve) (log10 M)
Summary of the method: (§1)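 EC50 and maximal response (yFin) were derived from the lowest-AICc fit, either three- or four-parameter log-logistic. The data were pooled CellTiter-Glo luminescence values, log2-transformed and normalised per plate to % activity between negative (solvent) and positive controls. Patient-derived pHGG/DIPG cell lines and astrocyte controls on 1% Geltrex-coated 384-well plates received a 10-point threefold dilution series (mean top concentration 35 μM) by pin tool, in triplicate, for 7 days (iAstro 3 days) at 37 °C, 5% CO2.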

HGGX39 [2] = paediatric high-grade glioma line; assay: as above
Summary of the method: as §1

HGGX6 [3] = H3.3 G34R paediatric high-grade glioma line; assay: as above
Summary of the method: as §1

DIPGX29 [4] = H3.3 K27M diffuse intrinsic pontine glioma line; assay: as above
Summary of the method: as §1

DIPGX37 [5] = assay: area under dose-response curve of % growth inhibition (log2 RLU vs DMSO / staurosporine), 1e-11 to 1e-4 M (% x log10 M); higher = more growth inhibition
Summary of the method: (§2)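 Cells were exposed in triplicate for 7 days (iAstro: 3 days) at 37 °C, 5% CO2 to a 10-point series of threefold dilutions with a mean top concentration of 35 μM. These were patient-derived pHGG/DIPG lines plus astrocytes, grown on 384-well plates coated with 1% Geltrex. Readout was CellTiter-Glo luminescence, log2-transformed and set per plate to % activity between solvent and positive controls, from which area under the curve was derived by trapezoid rule on a log-logistic fit or, failing that, a smoothing spline.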

HGGX39 [6] = assay: as above
Summary of the method: as §2

HGGX6 [7] = assay: as above
Summary of the method: as §2

DIPGX29 [8] = assay: as above
Summary of the method: as §2

DIPGX37 [9] = assay: maximal growth inhibition (yFin) relative to DMSO / staurosporine; higher = more efficacious
Summary of the method: as §1

HGGX39 [10] = assay: as above
Summary of the method: as §1

HGGX6 [11] = assay: as above
Summary of the method: as §1

DIPGX29 [12] = assay: as above
Summary of the method: as §1

SMILES | EC50 (log10 M) (DIPGX37 [1]) | EC50 (log10 M) (HGGX39 [2]) | EC50 (log10 M) (HGGX6 [3]) | EC50 (log10 M) (DIPGX29 [4]) | area under dose-response curve (DIPGX37 [5]) | area under dose-response curve (HGGX39 [6]) | area under dose-response curve (HGGX6 [7]) | area under dose-response curve (DIPGX29 [8]) | maximal growth inhibition (DIPGX37 [9]) | maximal growth inhibition (HGGX39 [10]) | maximal growth inhibition (HGGX6 [11]) | maximal growth inhibition (DIPGX29 [12])
Cc1cn(CCN2CCN(c3ccccc3-c3cc(C#N)cc(C(=O)NCCCN4CCCC4)c3)CC2)c2ccccc12 [LLY-507] | -5.22 | -4.84 | -5.12 | -5.13 | 92.2 | 66.6 | 92.5 | 86.5 | 75.6% | 79.1% | 79.4% | 76.7%
CN(C)C(=O)C(CCN1CCC(O)(c2ccc(Cl)cc2)CC1)(c1ccccc1)c1ccccc1 [LOPERAMIDE] | -4.74 | -4.75 | -4.74 | -4.79 | 84 | 60.8 | 58.7 | 75.5 | 93.9% | 80.5% | 79.2% | 81.5%
CC(C)OC(=O)C(C(=O)OC(C)C)=C1SC=CS1 [MALOTILATE] | -4.89 | -4.94 | -4.94 | -4.88 | 50.9 | 88.2 | 32.7 | 30.3 | 57.4% | 83.7% | 34.8% | 35.2%
Cc1ccc(NC(=O)c2ccc(CN3CCN(C)CC3)cc2)cc1Nc1nc(-c2cccnc2)cs1 [MASITINIB] | -4.65 | -4.71 | -4.66 | -4.69 | 52.8 | 66.4 | 64.6 | 57.8 | 81% | 81.1% | 78.3% | 72.3%
Cc1cccc(CN2CCN(C(c3ccccc3)c3ccc(Cl)cc3)CC2)c1 (configuration not stated) [MECLIZINE] | -4.83 | -4.91 | -4.86 | -4.89 | 85.1 | 44.3 | 35.5 | 42.8 | 79.1% | 48.7% | 41.1% | 41.9%
CN(C)c1ccc2nc3ccc(=[N+](C)C)cc-3sc2c1 [METHYLENE BLUE] | -5.04 | -5.48 | -5.03 | -5.31 | 67.9 | 76.9 | 89.6 | 76.5 | 54.8% | 50.7% | 69.6% | 56.7%
Cc1c(CN2CCC(Nc3ncnc4sc(CC(F)(F)F)cc34)CC2)ccc2c1cc(C#N)n2Cc1cn[nH]c1 [MI-503] | -4.98 | -5.14 | -4.9 | -4.9 | 70.7 | 84.8 | 83.9 | 92.6 | 72.1% | 74.2% | 71.9% | 74%
Clc1ccc(COC(Cn2ccnc2)c2ccc(Cl)cc2Cl)c(Cl)c1 (configuration not stated) [MICONAZOLE] | -4.79 | -4.94 | -4.87 | -4.89 | 48.6 | 39.2 | 35.5 | 46.5 | 61.9% | 42.1% | 41.5% | 45.9%
CO[C@@]12[C@H](COC(N)=O)C3=C(C(=O)C(C)=C(N)C3=O)N1C[C@@H]1N[C@@H]12 [MITOMYCIN C] | -4.87 | -4.78 | -4.76 | -4.78 | 95.2 | 91.5 | 75.4 | 78 | 73% | 69.7% | 66.2% | 62.3%
COc1c(C)c2c(c(O)c1C/C=C(\C)CCC(=O)OCCN1CCOCC1)C(=O)OC2 [MYCOPHENOLATE MOFETIL] | -5.33 | -5.61 | -5.49 | -5.33 | 41.2 | 39.6 | 30.4 | 36.4 | 30.5% | 24.4% | 20% | 24.8%
O=C(N/N=C/c1ccc([N+](=O)[O-])o1)c1ccc(O)cc1 [NIFUROXAZIDE] | -4.75 | -4.81 | -4.77 | -4.78 | 78.2 | 39.4 | 56.6 | 73.5 | 81.6% | 49.3% | 74.2% | 81.1%
CCCCCCCCOc1ccccc1C(=O)Nc1ccc(C(=O)OCC[N+](C)(CC)CC)cc1 [OTILONIUM] | -4.86 | -4.96 | -4.88 | -4.75 | 22.7 | 74.2 | 61.2 | 16.8 | 26.4% | 77.5% | 69.5% | 22.4%
CCN(CC)CCOCCOC(=O)C(CC)(CC)c1ccccc1 [OXELADIN] | -4.88 | -4.84 | -4.83 | -4.79 | 35.4 | 59.1 | 28.1 | 19.7 | 34.4% | 64.4% | 28.2% | 25.1%
CN(C(=O)CN(CCO)CC(=O)N(C)C(C)(C)Cc1ccccc1)C(C)(C)Cc1ccccc1 [OXETHAZAINE] | -4.8 | -4.81 | -4.82 | -4.81 | 65.5 | 71.1 | 38.4 | 63 | 82.1% | 88.2% | 47.3% | 77.7%
N=C(N)c1ccc(OCCCCCOc2ccc(C(=N)N)cc2)cc1 [PENTAMIDINE] | -5.08 | -6.05 | -5.4 | -5.15 | 50 | 66.5 | 45.3 | 55.6 | 31.7% | 32.4% | 33.1% | 38.4%
COc1cc2nc(N3CCN(C(=O)c4ccco4)CC3)nc(N)c2cc1OC [PRAZOSIN] | -4.92 | -4.9 | -5.03 | -4.88 | 75.3 | 66.9 | 76.9 | 66.6 | 75.4% | 74.7% | 75% | 75.3%
